# Experimental data published in ChEMBL document CHEMBL1914389, “Steroidal C-21 mercapto derivatives as dissociated steroids: discovery of an inhaled dissociated steroid” (Bioorg Med Chem Lett, 2011).
# Tests used:
# [1] = target: T1, Glucocorticoid receptor (Rattus norvegicus) (UniProt P06536); test: Transactivation activity at glucocorticoid receptor in rat H4II-E cells assessed as induction of tyrosine amino transferase at 1 uM relative to control; format: cell-based
# T1 sequence (whole entry): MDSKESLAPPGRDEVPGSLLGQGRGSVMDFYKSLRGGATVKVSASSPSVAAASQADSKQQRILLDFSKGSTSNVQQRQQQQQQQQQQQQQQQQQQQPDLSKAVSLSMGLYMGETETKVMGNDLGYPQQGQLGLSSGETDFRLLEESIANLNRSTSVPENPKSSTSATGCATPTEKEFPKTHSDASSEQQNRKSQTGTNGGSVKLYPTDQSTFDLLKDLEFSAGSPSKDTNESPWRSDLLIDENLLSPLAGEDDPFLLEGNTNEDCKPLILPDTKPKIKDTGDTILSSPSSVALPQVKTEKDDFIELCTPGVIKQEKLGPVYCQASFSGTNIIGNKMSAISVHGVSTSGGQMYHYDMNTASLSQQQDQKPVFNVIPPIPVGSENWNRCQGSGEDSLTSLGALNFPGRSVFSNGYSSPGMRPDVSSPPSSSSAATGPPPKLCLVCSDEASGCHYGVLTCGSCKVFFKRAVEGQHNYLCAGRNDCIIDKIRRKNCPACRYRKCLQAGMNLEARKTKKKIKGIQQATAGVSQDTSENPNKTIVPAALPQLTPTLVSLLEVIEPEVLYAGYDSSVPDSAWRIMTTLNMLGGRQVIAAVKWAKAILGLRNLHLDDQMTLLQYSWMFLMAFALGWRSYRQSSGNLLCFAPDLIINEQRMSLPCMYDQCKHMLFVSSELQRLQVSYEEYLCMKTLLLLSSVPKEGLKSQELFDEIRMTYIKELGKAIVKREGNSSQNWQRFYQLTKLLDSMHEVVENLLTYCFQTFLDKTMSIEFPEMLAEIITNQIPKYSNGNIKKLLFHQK
# [2] = target: T2, Glucocorticoid receptor (Homo sapiens) (UniProt P04150); test: Transactivation activity at glucocorticoid receptor in human HepG2 cells expressing luciferase-taggged GRE gene at 1 uM by luciferase reporter gene assay relative to control; format: cell-based
# T2 sequence (whole entry): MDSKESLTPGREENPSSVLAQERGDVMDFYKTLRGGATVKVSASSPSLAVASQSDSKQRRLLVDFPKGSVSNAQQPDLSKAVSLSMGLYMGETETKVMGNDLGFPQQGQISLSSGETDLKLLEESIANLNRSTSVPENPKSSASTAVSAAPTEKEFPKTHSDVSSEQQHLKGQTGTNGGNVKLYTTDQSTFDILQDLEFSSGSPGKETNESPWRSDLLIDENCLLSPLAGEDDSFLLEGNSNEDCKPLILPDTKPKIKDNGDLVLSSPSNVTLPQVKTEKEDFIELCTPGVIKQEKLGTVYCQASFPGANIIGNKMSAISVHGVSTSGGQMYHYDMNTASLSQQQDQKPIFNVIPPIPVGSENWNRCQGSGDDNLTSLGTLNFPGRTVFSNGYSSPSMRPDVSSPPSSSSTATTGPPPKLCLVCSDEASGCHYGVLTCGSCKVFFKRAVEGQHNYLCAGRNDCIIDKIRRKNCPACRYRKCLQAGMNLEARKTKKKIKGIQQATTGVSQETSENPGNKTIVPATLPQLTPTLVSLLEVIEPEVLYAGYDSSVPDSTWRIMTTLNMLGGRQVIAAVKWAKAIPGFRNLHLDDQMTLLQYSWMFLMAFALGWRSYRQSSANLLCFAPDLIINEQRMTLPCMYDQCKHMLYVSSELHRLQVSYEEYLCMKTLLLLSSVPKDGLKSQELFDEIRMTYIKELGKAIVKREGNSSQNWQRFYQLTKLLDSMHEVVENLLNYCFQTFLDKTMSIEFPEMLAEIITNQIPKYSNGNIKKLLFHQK
# [3] = target: T3, Glucocorticoid receptor (Homo sapiens, UniProt P04150); test: Transrepression activity at glucocorticoid receptor in human H292 cells assessed as inhibition of TNF-stimulated IL-6 cytokine synthesis; format: cell-based
# T3 sequence (P04150 whole entry): T2 sequence (whole entry)
# [4] = target: T2, Glucocorticoid receptor (Homo sapiens); test: Transactivation activity at glucocorticoid receptor in human HepG2 cells assessed as induction of tyrosine amino transferase at 1 uM relative to control; format: cell-based
# [5] = test system: Lung; test: Drug uptake in lung of Brown-Norway rat; format: ADME, tissue-based; conditions: in vivo
# [6] = test system: Rattus norvegicus; test: Antiinflammatory activity in intratracheal insufflated allergen challenged Brown-Norway rat assessed as inhibition of inflammatory cell influx administered as single dose; format: functional; conditions: inhaled or nasal
# [7] = test system: Rattus norvegicus; test: Toxicity in ip dosed Brown-Norway rat assessed as decrease in adrenal weight administered for 3 days; format: organism-based; conditions: in vivo, 72 h
# [8] = test system: Rattus norvegicus; test: Toxicity in ip dosed Brown-Norway rat assessed as decrease in thymus weight administered for 3 days; format: organism-based; conditions: in vivo, 72 h
# [9] = target: T2, Glucocorticoid receptor (Homo sapiens); test: Transrepression activity at glucocorticoid receptor in human H292 cells assessed as inhibition of TNF-stimulated IL-6 cytokine synthesis at 1 uM relative to control; format: cell-based
# [10] = target: T3, Glucocorticoid receptor; test: Inhibition of human glucocorticoid receptor
# [11] = test system: Rattus norvegicus; test: Toxicity in ip dosed Brown-Norway rat assessed as decrease in body weight administered for 3 days; format: organism-based; conditions: in vivo, 72 h
# [12] = test system: Rattus norvegicus; test: Antiinflammatory activity in allergen challenged Brown-Norway rat assessed as inhibition of total BAL cell administered via nose as dry powder; format: functional
# [13] = Therapeutic index, ratio of ED20 for thymolysis to ED70 for forced vital capacity in ovalbumin-challenged Brown-Norway rat; format: organism-based; conditions: in vivo, read-out: TI
# [14] = target: T3, Glucocorticoid receptor; test: Transactivation activity at glucocorticoid receptor in human HepG2 cells expressing luciferase-taggged GRE gene by luciferase reporter gene assay; format: cell-based
# [15] = test system: Rattus norvegicus; test: Induction of thymolysis in ovalbumin-challenged Brown-Norway rat at upto 730 ug/kg administered via nose inhalation; format: organism-based; conditions: in vivo, 0.73 mg/kg
# [16] = AUC in rat at 10 mg/kg, po; format: ADME, organism-based; design: dose 10 mg/kg, route oral; conditions: plasma
# [17] = species: Rattus norvegicus; test: Ratio of fluticasone propionate TI to compound TI in ovalbumin-challenged Brown-Norway rat
# [18] = target: T4, Glucocorticoid receptor (Rattus norvegicus, UniProt P06536); test: Transactivation activity at glucocorticoid receptor in rat H4II-E cells assessed as induction of tyrosine amino transferase; format: cell-based
# T4 sequence (P06536 whole entry): T1 sequence (whole entry)
# [19] = target: T3, Glucocorticoid receptor; test: Transactivation activity at glucocorticoid receptor in human HepG2 cells assessed as induction of tyrosine amino transferase; format: cell-based
SMILES,Emax [1] [%],Emax [2] [%],IC50 [3] [nM],Emax [4] [%],Emax [9] [%],IC50 [10] [nM],EC50 [14] [nM],further results
C[C@]12CCC(=O)C=C1CC[C@@H]1[C@@H]2[C@@H](O)C[C@@]2(C)[C@H]1CC[C@]2(O)C(=O)CSc1nc2ccccc2s1,0,30,36,5,97,4.8,–,Drug uptake [5]: 85 µg/kg; ED50 [6]: 0.42 mg/kg; ED50 [7]: > 100 mg/kg; ED50 [8]: > 100 mg/kg; ED50 [11]: > 100 mg/kg; inhibition (INH) [12]: 27%
C[C@]12CCC(=O)C=C1CC[C@@H]1[C@@H]2[C@@H](O)C[C@@]2(C)[C@H]1CC[C@]2(OC(=O)c1ccco1)C(=O)CSc1ncccn1,7,–,9.7,35,94,–,–,–
CCC(=O)OCC(=O)[C@@]1(OC(=O)CC)[C@@H](C)C[C@H]2[C@@H]3CCC4=CC(=O)C=C[C@]4(C)[C@@]3(Cl)[C@@H](O)C[C@@]21C [BECLOMETHASONE DIPROPIONATE],–,–,–,–,–,–,–,selectivity ratio [13]: 1
C[C@@H]1C[C@H]2[C@@H]3CCC4=CC(=O)C=C[C@]4(C)[C@@]3(Cl)[C@@H](O)C[C@]2(C)[C@@]1(O)C(=O)CSc1nc2ccccc2s1,29,60,4.95,–,88,17,50,–
C[C@H]1C[C@@H]2[C@H]([C@@H](O)C[C@@]3(C)[C@H]2CC[C@]3(O)C(=O)CSc2nc3ccccc3s2)[C@@]2(C)C=CC(=O)C=C12,34,55,39.1,–,95,18,295,–
C[C@]12C=CC(=O)C=C1CC[C@@H]1[C@@H]2[C@@H](O)C[C@@]2(C)[C@H]1CC[C@]2(O)C(=O)CSc1nc2ccccc2s1,19,29,35,–,78,3.8,–,–
C[C@]12CCC(=O)C=C1CC[C@@H]1[C@@H]2[C@@H](O)C[C@@]2(C)[C@H]1CC[C@]2(OC(=O)c1ccco1)C(=O)CSc1nc2ccccc2s1,2,–,2,5,100,–,–,Activity [15]: >= 20%; selectivity ratio [13]: > 15; AUC [16]: 7 ng·h/mL; Ratio [17]: 10
C[C@]12CCC(=O)C=C1CC[C@@H]1[C@@H]2[C@@H](O)C[C@@]2(C)[C@H]1CC[C@]2(OC(=O)c1ccco1)C(=O)CSc1cnc2ccccc2n1,9,–,1.4,41,98,–,–,–
C[C@]12C=CC(=O)C=C1CC[C@@H]1[C@@H]2[C@@H](O)C[C@@]2(C)[C@H]1CC[C@]2(OC(=O)c1ccco1)C(=O)CSc1nc2ccccc2s1,62,93,0.75,43,99,–,14.1,EC50 [18]: 18.7 nM; EC50 [19]: 50.8 nM
Cn1c(SCC(=O)[C@@]2(OC(=O)c3ccco3)CC[C@H]3[C@@H]4CCC5=CC(=O)CC[C@]5(C)[C@H]4[C@@H](O)C[C@@]32C)nc2ccccc21,17,–,3.7,39,98,–,–,–
C[C@]12C=CC(=O)C=C1CC[C@@H]1[C@@H]2[C@@H](O)C[C@@]2(C)[C@H]1CC[C@]2(OC(=O)c1ccco1)C(=O)CSc1nccc2ccccc12,32,73,2.1,24,96,–,17.3,–
C[C@]12CCC(=O)C=C1CC[C@@H]1[C@@H]2[C@@H](O)C[C@@]2(C)[C@H]1CC[C@]2(OC(=O)c1ccco1)C(=O)CSc1nccc2ccccc12,4,–,15.9,33,86,–,–,–
C[C@]12CCC(=O)C=C1CC[C@@H]1[C@@H]2[C@@H](O)C[C@@]2(C)[C@H]1CC[C@]2(OC(=O)c1ccco1)C(=O)CSc1nc2ncccc2s1,2,–,14.3,15,94,–,–,–
C[C@]12CCC(=O)C=C1CC[C@@H]1[C@@H]2[C@@H](O)C[C@@]2(C)[C@H]1CC[C@]2(OC(=O)c1ccco1)C(=O)CSc1nc2ccccc2o1,9,–,2.2,53,97,–,–,EC50 [19]: 55.6 nM
C[C@@H]1C[C@H]2[C@@H]3CCC4=CC(=O)C=C[C@]4(C)[C@@]3(F)[C@@H](O)C[C@]2(C)[C@@]1(O)C(=O)CSc1nc2ccccc2s1,33,68,4.4,–,98,18,45.5,–
Cc1ccnc(SCC(=O)[C@@]2(OC(=O)c3ccco3)CC[C@H]3[C@@H]4CCC5=CC(=O)C=C[C@]5(C)[C@H]4[C@@H](O)C[C@@]32C)n1,24,97,2.1,43,98,–,13.3,–
C[C@@H]1C[C@H]2[C@@H]3C[C@H](F)C4=CC(=O)C=C[C@]4(C)[C@@]3(F)[C@@H](O)C[C@]2(C)[C@@]1(O)C(=O)CSc1nc2ccccc2s1,79,66,1.9,–,100,13,17,EC50 [18]: 27 nM
C[C@]12CCC(=O)C=C1CC[C@@H]1[C@@H]2[C@@H](O)C[C@@]2(C)[C@H]1CC[C@]2(OC(=O)c1ccco1)C(=O)CSc1ccc2ccccc2n1,11,–,2.85,22,96,–,–,–
Cc1nc(SCC(=O)[C@@]2(OC(=O)c3ccco3)CC[C@H]3[C@@H]4CCC5=CC(=O)CC[C@]5(C)[C@H]4[C@@H](O)C[C@@]32C)sc1C,12,–,0.9,57,100,–,–,EC50 [19]: 22.4 nM
C[C@]12CCC(=O)C=C1CC[C@H]1[C@@H]3CC[C@](O)(C(=O)CSc4nc5ccccc5s4)[C@@]3(C)C[C@H](O)[C@@]12F,21,63,18.8,–,95,4.6,535,–
CCCC1O[C@@H]2C[C@H]3[C@@H]4CCC5=CC(=O)C=C[C@]5(C)[C@H]4[C@@H](O)C[C@]3(C)[C@]2(C(=O)CO)O1 (some centres not stated) [BUDESONIDE],–,–,–,–,–,–,–,selectivity ratio [13]: 1
